Values quoted from earlier work as cited in patent publication US8097743B2, “Process for manufacture of blocked mercaptosilane coupling agents” (Momentive Performance Materials Inc., priority 2002, dated 2012).

Details: cited from earlier work

SMILES | Miscibility with water (classification) (below 18.7° C.) | Solubility in water (classification)
CCN(CC)CC [TEA, triethylamine] | completely miscible | –
CCCN(CCC)CCC [TNPA, tri-n-propylamine] | – | very slightly soluble
